The subject of the test is LTB4 production by BUD-8 skin cell fibroblasts. The experiment in a line: LTB4 production by BUD-8 skin cell fibroblasts (radioimmunoassay). It counts as cell-based, human. Here is the method: The effect of the compound of the present invention on the proliferative capacity of human BUD-8 skin fibroblasts was measured with the use of a ^3 H-thymidine incorporation assay using culture conditions which were similar to those used for a Con-A blastogenesis assay, described previously. Cultured skin cells were detached from the surface of tissue culture flasks mechanically with a Teflon scraper. The cells were washed, resuspended in incubation medium and the viabilities were determined. These cells were then plated in triplicate at a density of 2×10^3 cells/0.1 ml/microtiter well for the proliferation assay and a density of 1×10^4 cells/0.1 ml/microtiter well for the assays to quantitate PGE2 and LTB4. To these cells was added incubation medium containing indomethacin to inhibit prostaglandin production, or nordihydroguaiaretic acid (NDGA) to inhibit leukotriene production (positive controls).
After 18 hours of culture, samples of the BUD-8 skin cell supernatants were collected from one set of microtiter plates and frozen until assayed for PGE2 or for LTB4 content using the radioimmunoassays described below.
Levels of LTB4 in aliquots of BUD-8 skin cell cultures supernatants were quantitated by radioimmunoassay (New England Nuclear). Briefly, into each polyproplyene tube were mixed 0.1 ml anti-LTB4, 0.1. ml ^3 H-LTB4 and 0.1 ml LTB4 standard or LTB4 containing sample. The BUD-8 skin cell culture supernatants were used directly in the radioimmunoassay. Tubes were refrigerated overnight. A charcoal solution (0.5 ml of 0.5% charcoal Norit A) was added and each tube was centrifuged. The radioactivity in the supernatant was then counted in a liquid scintillation counter.

`CCCCCCCOCCCO[C@@H]1[C@H]2OC(C)(C)O[C@H]2O[C@@H]1[C@H](O)CO` [IIg]: the “concentrations with significantly decreased LTB4 levels” value was 1 to 100 µg/mL. Besides, under “1 ug/ml”, the “LTB4 in supernatant (Table XIII)” value was 32.2 ± 1.9 pg LTB4 /1000 ul supernatant and the “calculated LTB4 produced/10^5 BUD-8 cells” value is on record as 619 pg per 10^5 cells. Besides, where the note is “10 ug/ml”, the “LTB4 in supernatant (Table XIII)” value is recorded as 28.8 ± 1.4 pg LTB4 /1000 ul supernatant and the “calculated LTB4 produced/10^5 BUD-8 cells” value was 550 pg per 10^5 cells. Also, under “25 ug/ml”, the “LTB4 in supernatant (Table XIII)” value is reported as 23.7 ± 0.5 pg LTB4 /1000 ul supernatant and the “calculated LTB4 produced/10^5 BUD-8 cells” value is 447 pg per 10^5 cells. For the same compound, for the setting “100 ug/ml”, the “LTB4 in supernatant (Table XIII)” value is 27.3 ± 2.6 pg LTB4 /1000 ul supernatant and the “calculated LTB4 produced/10^5 BUD-8 cells” value is 520 pg per 10^5 cells. Moreover, the “LTB4 in supernatant (Table XIII)” value (300 ug/ml) is given as 24.5 ± 2.8 pg LTB4 /1000 ul supernatant. The “LTB4 in supernatant (Table XIII)” value (750 ug/ml) was 19.3 ± 1.9 pg LTB4 /1000 ul supernatant. Moreover, the inhibition at 1 µg/mL (Homo sapiens, Fibroblast, 18 h, 1 ug/ml, read-out: % Effect on LTB4 production) is 17%. In addition, the inhibition at 10 µg/mL (Homo sapiens, Fibroblast, 18 h, 10 ug/ml, read-out: % Effect on LTB4 production) came to 26%. Under “Homo sapiens, Fibroblast, 18 h, 25 ug/ml, read-out: % Effect on LTB4 production”, the inhibition at 25 µg/mL was found to be 39%. Further, the inhibition at 100 µg/mL (Homo sapiens, Fibroblast, 18 h, 100 ug/ml, read-out: % Effect on LTB4 production) was determined as 30%. Moreover, the inhibition at 300 µg/mL (Homo sapiens, Fibroblast, 18 h, 300 ug/ml, read-out: % Effect on LTB4 production) was found to be 37%. In addition, the inhibition at 750 µg/mL (Homo sapiens, Fibroblast, 18 h, 750 ug/ml, read-out: % Effect on LTB4 production) was 50%.

The record behind these values is patent US5298494A, “Monosaccharides having anti-proliferation and anti-inflammatory activity, compositions and uses thereof” (Greenwich Pharmaceuticals Incorporated, priority 1993, dated 1994).
